Values quoted from earlier work, collected in US7381426B2, “Targeted delivery of bioactive factors to the systemic skeleton” (Southwest Research Institute, priority 2002, dated 2008).

System: hindlimb unloading in rats
Details: infusion 2 μg/kg/day, hindlimb unloaded rats

In the case of TGF-β, the “effect on unloading-induced bone changes” value is given as “corrects the decrease in bone mass, calcium content, osteoblast number and mineralization rate”.
